The numbers were not newly measured in US20050226814A1, “Diagnostic method and kit for implantation of a sustained release drug-delivery implant with a steroid” (Bausch & Lomb Incorporated, priority 2004, published 2005), which cites them from elsewhere.

Series [1] relates to retinochoroid disorders. Conditions: injection into the eye of a patient.
For series [2], the system named is proliferative vitreoretinopathy. Conditions: injected into the sub-conjuctival area.

Regarding `C[C@]12C=CC(=O)C=C1CC[C@H]1[C@@H]3C[C@@H](O)[C@](O)(C(=O)CO)[C@@]3(C)C[C@H](O)[C@@]12F` [trimacinolone, triamcinolone], the long-term effect entry in series [1] is listed as “did not have a significantly long-term effect”.

`C[C@]12CCC(=O)C=C1CC[C@@H]1[C@@H]2[C@@H](O)C[C@@]2(C)[C@H]1CC[C@]2(O)C(=O)CO` [hydrocortisone]: the “effect on proliferative vitreoretinopathy” value in series [2] was “inhibited proliferative vitreoretinopathy”.
